Data taken from the NIST ThermoML archive (doi:10.1021/je800110r).

Details: 293.15 K, Liquid, Vibrating tube method

CCCCCCCCCC [decane]
Details | mass density [kg/m3]
12325 kPa | 739.1
12342 kPa | 739.1
12359 kPa | 739
12381 kPa | 739
12401 kPa | 739.1
12417 kPa | 739
12437 kPa | 739.1
12454 kPa | 739
12476 kPa | 739.3
12499 kPa | 739.2
12516 kPa | 739.1
12536 kPa | 739.1
12556 kPa | 739.1
12576 kPa | 739.1
12593 kPa | 739.2
12610 kPa | 739.3
12633 kPa | 739.3
12653 kPa | 739.2
12677 kPa | 739.2
12703 kPa | 739.2
12720 kPa | 739.2
12744 kPa | 739.3
12759 kPa | 739.2
12785 kPa | 739.3
12809 kPa | 739.3
12827 kPa | 739.3
12851 kPa | 739.3
12872 kPa | 739.5
12896 kPa | 739.3
12917 kPa | 739.5
12939 kPa | 739.5
12957 kPa | 739.4
12978 kPa | 739.4
12999 kPa | 739.5
13018 kPa | 739.5
13039 kPa | 739.5
13058 kPa | 739.5
13080 kPa | 739.6
13098 kPa | 739.5
13127 kPa | 739.6
13152 kPa | 739.6
13172 kPa | 739.7
13197 kPa | 739.5
13216 kPa | 739.6
13235 kPa | 739.6
13251 kPa | 739.7
13274 kPa | 739.7
13290 kPa | 739.7
13309 kPa | 739.7
13329 kPa | 739.6
13359 kPa | 739.6
13385 kPa | 739.8
13408 kPa | 739.7
13435 kPa | 739.7
13459 kPa | 739.8
13479 kPa | 739.8
13501 kPa | 740
13525 kPa | 739.9
13548 kPa | 739.8
13569 kPa | 740
13586 kPa | 739.9
13609 kPa | 739.9
13626 kPa | 739.9
13644 kPa | 739.8
13667 kPa | 740
13686 kPa | 740
13701 kPa | 740
13722 kPa | 739.9
13745 kPa | 740
13766 kPa | 739.9
13784 kPa | 739.9
13802 kPa | 740
13820 kPa | 740
13844 kPa | 740
13862 kPa | 740.1
13881 kPa | 739.9
13903 kPa | 740.2
13927 kPa | 740.1
13943 kPa | 740.1
13967 kPa | 740.3
13989 kPa | 740.1
14008 kPa | 740.2
14024 kPa | 740.3
14044 kPa | 740.1
14061 kPa | 740.2
14081 kPa | 740.3
14098 kPa | 740.3
14121 kPa | 740.2
14139 kPa | 740.3
14151 kPa | 740.3
14167 kPa | 740.2
14181 kPa | 740.4
14194 kPa | 740.3
14205 kPa | 740.2
14220 kPa | 740.4
14232 kPa | 740.3
14245 kPa | 740.4
14257 kPa | 740.4
14269 kPa | 740.2
14281 kPa | 740.3
14297 kPa | 740.4
14314 kPa | 740.4
14325 kPa | 740.4
14339 kPa | 740.4
14352 kPa | 740.4
14363 kPa | 740.4
14376 kPa | 740.4
14389 kPa | 740.4
14404 kPa | 740.4
14418 kPa | 740.4
14427 kPa | 740.5
14443 kPa | 740.4
14458 kPa | 740.5
14471 kPa | 740.4
14483 kPa | 740.6
14500 kPa | 740.6
14517 kPa | 740.5
14529 kPa | 740.4
14542 kPa | 740.6
14554 kPa | 740.4
14566 kPa | 740.6
14580 kPa | 740.6
14592 kPa | 740.5
14605 kPa | 740.5
14617 kPa | 740.6
14637 kPa | 740.6
14650 kPa | 740.7
14664 kPa | 740.6
14676 kPa | 740.7
14691 kPa | 740.6
14706 kPa | 740.7
14717 kPa | 740.7
14735 kPa | 740.6
14753 kPa | 740.7
14765 kPa | 740.7
14779 kPa | 740.7
14791 kPa | 740.7
14807 kPa | 740.7
14821 kPa | 740.7
14833 kPa | 740.8
14847 kPa | 740.7
14859 kPa | 740.7
14877 kPa | 740.9
14893 kPa | 740.7
14910 kPa | 740.8
14926 kPa | 740.8
14943 kPa | 740.9
14959 kPa | 740.8
14975 kPa | 740.9
14992 kPa | 740.9
15008 kPa | 740.8
15023 kPa | 740.8
15039 kPa | 740.9
15050 kPa | 740.9
15066 kPa | 740.9
15087 kPa | 740.9
15102 kPa | 740.9
15115 kPa | 741
15129 kPa | 740.8
15143 kPa | 741
15156 kPa | 740.9
15175 kPa | 741
15192 kPa | 741
15209 kPa | 740.9
15224 kPa | 741
15236 kPa | 741
15251 kPa | 741.2
15270 kPa | 741.1
15288 kPa | 741.1
15305 kPa | 741.1
15317 kPa | 741.1
15339 kPa | 741.1
15352 kPa | 741
15365 kPa | 741.1
15382 kPa | 741.1
15393 kPa | 741.1
15408 kPa | 741.2
15428 kPa | 741.1
15443 kPa | 741.2
15454 kPa | 741
15470 kPa | 741.2
15485 kPa | 741.2
15503 kPa | 741.2
15519 kPa | 741.2
15539 kPa | 741.2
15556 kPa | 741.1
15572 kPa | 741.2
15588 kPa | 741.1
15604 kPa | 741.4
15622 kPa | 741.2
15644 kPa | 741.2
15658 kPa | 741.2
15676 kPa | 741.3
15694 kPa | 741.4
15710 kPa | 741.3
15722 kPa | 741.3
15735 kPa | 741.3
15751 kPa | 741.4
15769 kPa | 741.4
15792 kPa | 741.3
15809 kPa | 741.5
15827 kPa | 741.3
15843 kPa | 741.3
15857 kPa | 741.5
15872 kPa | 741.5
15888 kPa | 741.4
15909 kPa | 741.5
15925 kPa | 741.5
15942 kPa | 741.5
15959 kPa | 741.5
15974 kPa | 741.5
15989 kPa | 741.5
16007 kPa | 741.6
16024 kPa | 741.5
16039 kPa | 741.6
16056 kPa | 741.5
16073 kPa | 741.6
16093 kPa | 741.6
16108 kPa | 741.6
16128 kPa | 741.6
16142 kPa | 741.6
16167 kPa | 741.7
16183 kPa | 741.8
16198 kPa | 741.7
16215 kPa | 741.7
16233 kPa | 741.7
16251 kPa | 741.8
16267 kPa | 741.8
16282 kPa | 741.7
16298 kPa | 741.7
16314 kPa | 741.7
16332 kPa | 741.6
16345 kPa | 741.8
16369 kPa | 741.8
16390 kPa | 741.8
16405 kPa | 741.8
16426 kPa | 741.8
16442 kPa | 741.9
16464 kPa | 741.8
16484 kPa | 741.9
16503 kPa | 741.9
16517 kPa | 741.9
16533 kPa | 741.9
16557 kPa | 741.9
16569 kPa | 741.9
16584 kPa | 741.8
16597 kPa | 741.9
16615 kPa | 741.9
16628 kPa | 742
16646 kPa | 742
16662 kPa | 742.1
16681 kPa | 742
16694 kPa | 742
16705 kPa | 742.1
16717 kPa | 742
16728 kPa | 742
16745 kPa | 742.2
16761 kPa | 742
16772 kPa | 742.1
16786 kPa | 742
16800 kPa | 742
16814 kPa | 742
16828 kPa | 742.2
16842 kPa | 742
16860 kPa | 742.1
16874 kPa | 742.1
16892 kPa | 742.1
16905 kPa | 742.1
16923 kPa | 742.2
16935 kPa | 742.1
16956 kPa | 742.1
16972 kPa | 742.3
16986 kPa | 742.2
